Source: patent US9994594B2, “Inhibitors of arginase and their therapeutic applications” (MARS, INCORPORATED, priority 2010, dated 2018)
Where a name gives a salt, the structure may show the parent alone. Read-outs that look alike come from different tables or passages of the source.

How the values were obtained:
[1] = target: T1, human arginase I (ARG I) (Homo sapiens, UniProt P05089); experiment: Inhibition of arginase I, spectrophotometric urea assay at 530 nm; assay type: biochemical; settings: read-out: Potency (ARG I)
T1 sequence (P05089 1-322): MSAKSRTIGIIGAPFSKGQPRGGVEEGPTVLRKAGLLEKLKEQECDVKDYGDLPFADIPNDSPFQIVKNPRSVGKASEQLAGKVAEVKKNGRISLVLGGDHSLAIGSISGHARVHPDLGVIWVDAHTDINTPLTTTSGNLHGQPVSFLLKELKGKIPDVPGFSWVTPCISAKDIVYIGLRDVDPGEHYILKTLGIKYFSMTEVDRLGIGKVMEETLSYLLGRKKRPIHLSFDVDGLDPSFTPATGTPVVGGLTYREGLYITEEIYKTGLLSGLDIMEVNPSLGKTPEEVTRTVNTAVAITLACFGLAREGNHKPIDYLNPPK
Summary of the method: (§1)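 IC50 was derived by regression of OD530 normalized to uninhibited-enzyme controls against log concentration. Urea from 60-min, 37 °C turnover of L-arginine with manganese sulfate was detected after acid o-phthaldialdehyde/primaquine quench and 10 min colour development. Arginase I and II came from 100 ng/ml stocks in pH 7.4 phosphate with ovalbumin.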

[2] = target: T2, arginase II (ARG II) (Homo sapiens, UniProt P78540); experiment: Inhibition of arginase II, spectrophotometric urea assay at 530 nm; assay type: biochemical
T2 sequence (P78540 23-354): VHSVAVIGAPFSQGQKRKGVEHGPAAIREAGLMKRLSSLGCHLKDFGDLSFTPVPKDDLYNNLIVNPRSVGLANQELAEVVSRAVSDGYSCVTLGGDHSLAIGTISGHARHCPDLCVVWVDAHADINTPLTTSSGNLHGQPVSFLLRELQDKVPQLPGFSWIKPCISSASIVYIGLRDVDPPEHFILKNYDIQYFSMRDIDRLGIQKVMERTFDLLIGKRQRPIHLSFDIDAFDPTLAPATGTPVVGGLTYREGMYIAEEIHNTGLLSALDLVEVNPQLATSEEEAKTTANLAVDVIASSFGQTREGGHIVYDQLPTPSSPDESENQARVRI
Summary of the method: as §1

[3] = Formula I compounds, Table 2, read-out: Potency (ARG II)
[4] = Formula II compounds, Table 2-A
[5] = Formula II compounds, Table 2-A, read-out: Potency (ARG)

SMILES | IC50 ([1]; Formula I compounds, Table 2) | IC50 [2, 3] | IC50 [1, 4] | IC50 [2, 5]
COc1ccccc1N1CCN(CCC(N)(CCCCB(O)O)C(=O)O)CC1 (stereo not drawn) [compound 50, 2-amino-6-borono-2-(2-(4-(2-methoxyphenyl)piperazin-1-yl)ethyl)hexanoic acid dihydrochloride] | > 5000 nM | > 5000 nM |  | 
CC(N)(CCCCB(O)O)C(=O)O (stereo not drawn) [compound 97, 2-Amino-6-borono-2-methylhexanoic acid hydrochloride] | 2000 to 5000 nM | > 5000 nM |  | 
NC(CCCCB(O)O)(CC(=O)O)C(=O)O (stereo not drawn) [compound 106, 2-amino-2-(4-boronobutyl)succinic acid hydrochloride] | > 5000 nM | > 5000 nM |  | 
NC(CCCCB(O)O)(C(=O)O)[C@H]1CCCN(Cc2ccc(Cl)c(Cl)c2)C1 (stereo partly drawn) [Example 69-A, 2-amino-6-borono-2-((S)-1-(3,4-dichlorobenzyl)piperidin-3-yl)hexanoic acid dihydrochloride] |  |  | 251 to 1000 nM | 1000 to 2000 nM
COc1cccc(CCCNCCC(N)(CCCCB(O)O)C(=O)O)c1 (stereo not drawn) [compound 65, 2-amino-6-borono-2-(2-(3-(3-methoxyphenyl)propylamino)ethyl)hexanoic acid dihydrochloride] | 0.1 to 250 nM | 0.1 to 250 nM |  | 
NC(CCCCB(O)O)(C(=O)O)[C@H]1C[C@@H](NCc2ccc(OC(F)(F)F)cc2)C1 (stereo partly drawn) [Example 76-A, cis-2-amino-6-borono-2-(3-(4-(trifluoromethoxy)benzylamino)cyclobutyl)hexanoic acid dihydrochloride] |  |  | 0.1 to 250 nM | 0.1 to 250 nM
CN(CCO)CCC(N)(CCCCB(O)O)C(=O)O (stereo not drawn) [compound 43, 2-amino-6-borono-2-(2-((2-hydroxyethyl)(methyl)amino)ethyl)hexanoic acid dihydrochloride] | 1000 to 2000 nM | 2000 to 5000 nM |  | 
NC(CCCCB(O)O)(C(=O)O)C1CCN(C(=O)NCCc2ccc(F)cc2)CC1 (stereo not drawn) [33-A, 2-amino-6-borono-2-(1-{[2-(4-fluorophenyl)ethyl]-carbamoyl}piperidin-4-yl)hexanoic acid hydrochloride] |  |  | 1000 to 2000 nM | 1000 to 2000 nM
CC(C)NCCC(N)(CCCCB(O)O)C(=O)O (stereo not drawn) [compound 55, 2-amino-6-borono-2-(2-(isopropylamino)ethyl)hexanoic acid dihydrochloride] | 0.1 to 250 nM | 251 to 1000 nM |  | 
NC(CCCCB(O)O)(CCN1CCC(F)(F)C1)C(=O)O (stereo not drawn) [compound 44, 2-amino-6-borono-2-(2-(3,3-difluoropyrrolidin-1-yl)ethyl)hexanoic acid dihydrochloride] | > 5000 nM | > 5000 nM |  | 
NC(CCCCB(O)O)(C(=O)O)C1CCN(CCc2ccccc2)CC1 (stereo not drawn) [Example 41-A, 2-amino-6-borono-2-(1-phenethylpiperidin-4-yl)hexanoic acid] |  |  | 251 to 1000 nM | 0.1 to 250 nM
NC(CCCCB(O)O)(C(=O)O)C1CCN(C(=S)Nc2cccc3ccccc23)CC1 (stereo not drawn) [Example 45-A, 2-amino-6-borono-2-(1-(naphthalen-1-ylcarbamothioyl)piperidin-4-yl)hexanoic acid] |  |  | 251 to 1000 nM | 1000 to 2000 nM
NC(CCCCB(O)O)(CCN1CCC(Cc2ccc(F)cc2)CC1)C(=O)O (stereo not drawn) [compound 127, 2-amino-6-borono-2-(2-(4-(4-fluorobenzyl)piperidin-1-yl)ethyl)hexanoic acid dihydrochloride] | 251 to 1000 nM | 251 to 1000 nM |  | 
NC(CCCCB(O)O)(CCN1CCC[C@@H](C(=O)O)C1)C(=O)O (stereo partly drawn) [compound 53, (3R)-1-(3-amino-7-borono-3-carboxyheptyl)piperidine-3-carboxylic acid] | 2000 to 5000 nM | 2000 to 5000 nM |  | 
NC(CCCCB(O)O)(CCN1CCC(Cc2ccc(Cl)cc2)CC1)C(=O)O (stereo not drawn) [compound 122, 2-amino-6-borono-2-(2-(4-(4-chlorobenzyl)piperidin-1-yl)ethyl)hexanoic acid dihydrochloride] | 251 to 1000 nM | 251 to 1000 nM |  | 
COc1ccc(C2=CCN(CCC(N)(CCCCB(O)O)C(=O)O)CC2)cc1 (stereo not drawn) [compound 31, 2-amino-6-borono-2-(2-(4-(4-methoxyphenyl)-5,6-dihydropyridin-1(2H)-yl)ethyl)hexanoic acid dihydrochloride] | 251 to 1000 nM | 251 to 1000 nM |  | 
NC(CCCCB(O)O)(CCN1CCC(Cc2ccc(C(F)(F)F)cc2)CC1)C(=O)O (stereo not drawn) [compound 126, 2-amino-6-borono-2-(2-(4-(4-(trifluoromethyl)benzyl)piperidine-1-yl)ethyl)hexanoic acid dihydrochloride] | 251 to 1000 nM | 251 to 1000 nM |  | 

SMILES | IC50 ([1]; Formula I compounds, Table 2) | IC50 [2, 3] | IC50 [1, 4] | IC50 [2, 5]
NC(CCCCB(O)O)(C(=O)O)C1CNCCO1 (stereo not drawn) [19-A, 2-amino-6-borono-2-(morpholin-2-yl)hexanoic acid dihydrochloride] |  |  | 2000 to 5000 nM | 2000 to 5000 nM
NC(CCCCB(O)O)(C(=O)O)[C@H]1C[C@H](NCc2ccccc2)C1 (stereo partly drawn) [Example 75-A, trans-2-amino-2-(3-(benzylamino)cyclobutyl)-6-boronohexanoic acid dihydrochloride] |  |  | 0.1 to 250 nM | 251 to 1000 nM
NC(CCCCB(O)O)(C(=O)O)C1CCN(Cc2ccc(F)cc2)CC1 (stereo not drawn) [Example 94-A, 2-amino-6-borono-2-(1-(4-fluorobenzyl)piperidin-4-yl)hexanoic acid dihydrochloride] |  |  | 0.1 to 250 nM | 251 to 1000 nM
CN(C)C(=O)[C@@H]1CCCN1CCC(N)(CCCCB(O)O)C(=O)O (stereo partly drawn) [compound 54, 2-amino-6-borono-2-(2-((S)-2-(dimethylcarbamoyl)pyrrolidin-1-yl)ethyl)hexanoic acid dihydrochloride] | > 5000 nM | > 5000 nM |  | 
NC(CCCCB(O)O)(C(=O)O)C1CCN(Cc2cccc(Cn3cccn3)c2)CC1 (stereo not drawn) [Example 65-A, 2-(1-(3-((1H-pyrazol-1-yl)methyl)benzyl)piperidin-4-yl)-2-amino-6-boronohexanoic acid dihydrochloride] |  |  | 0.1 to 250 nM | 0.1 to 250 nM
NC(CCCCB(O)O)(CCN1CCc2ccccc2C1)C(=O)O (stereo not drawn) [compound 36, 2-amino-6-borono-2-(2-(3,4-dihydroisoquinolin-2(1H)-yl)ethyl)hexanoic acid dihydrochloride] | 251 to 1000 nM | 1000 to 2000 nM |  | 
CCCC1CCN(CCC(N)(CCCCB(O)O)C(=O)O)CC1 (stereo not drawn) [compound 129, 2-amino-6-borono-2-(2-(4-propylpiperidin-1-yl)ethyl)hexanoic acid dihydrochloride] | 251 to 1000 nM | 1000 to 2000 nM |  | 
NC(CCCCB(O)O)(CCN1CCc2[nH][nH]c(=O)c2C1)C(=O)O (stereo not drawn) [compound 30, 2-amino-6-borono-2-(2-(3-oxo-2,3,6,7-tetrahydro-1H-pyrazolo[4,3-c]pyridin-5(4H)-yl)ethyl)hexanoic acid dihydrochloride] | 251 to 1000 nM | 1000 to 2000 nM |  | 
NC(CCCCB(O)O)(C(=O)O)C1CCN(C(=O)c2ccc(Cl)cc2)CC1 (stereo not drawn) [26-A, 2-amino-6-borono-2-[1-(4-chlorobenzoyl)piperidin-4-yl]hexanoic acid hydrochloride] |  |  | 2000 to 5000 nM | 2000 to 5000 nM
NCCN(CCC(N)(CCCCB(O)O)C(=O)O)Cc1ccccc1 (stereo not drawn) [compound 73, 2-amino-2-(2-((2-aminoethyl)(benzyl)amino)ethyl)-6-boronohexanoic acid trihydrochloride] | 0.1 to 250 nM | 251 to 1000 nM |  | 
NC(CCCCB(O)O)(C(=O)O)C1CCN(Cc2cccc(C(=O)O)c2)CC1 (stereo not drawn) [Example 105-A, 3-((4-(1-amino-5-borono-1-carboxypentyl)piperidin-1-yl)methyl)benzoic acid dihydrochloride] |  |  | 251 to 1000 nM | 251 to 1000 nM
NC(CCCCB(O)O)(CCN1CCCC1c1cc2ccccc2o1)C(=O)O (stereo not drawn) [compound 42, 2-amino-2-(2-(2-(benzofuran-2-yl)pyrrolidin-1-yl)ethyl)-6-boronohexanoic acid dihydrochloride] | 2000 to 5000 nM | 2000 to 5000 nM |  | 
CN1CCN(CC(N)(CCCCB(O)O)C(=O)O)CC1 (stereo not drawn) [compound 80, 2-amino-6-borono-2-((4-methylpiperazin-1-yl)methyl) hexanoic acid trihydrochloride] | 2000 to 5000 nM | > 5000 nM |  | 
N[C@@](CCCCB(O)O)(C(=O)O)[C@H]1CCN(c2ccc(Cl)cc2)C1 [12-A, (R)-2-amino-6-borono-2-((S)-1-(4-chlorophenyl)pyrrolidin-3-yl)hexanoic acid hydrochloride] |  |  | 2000 to 5000 nM | 2000 to 5000 nM
NC(CCCCB(O)O)(C(=O)O)C1CCN(Cc2ccc(Cl)cc2Cl)CC1 (stereo not drawn) [Example 97-A, 2-amino-6-borono-2-(1-(2,4-dichlorobenzyl)piperidin-4-yl)hexanoic acid dihydrochloride] |  |  | 251 to 1000 nM | 251 to 1000 nM
NC(CCCCB(O)O)(CCN1CCC[C@H](C(=O)O)C1)C(=O)O (stereo partly drawn) [compound 56, (3S)-1-(3-amino-7-borono-3-carboxyheptyl)piperidine-3-carboxylic acid dihydrochloride] | 1000 to 2000 nM | 2000 to 5000 nM |  | 
